Assay results taken from patent US9051240B2, “Substituted 2-[2-(phenyl) ethylamino] alkaneamide derivatives and their use as sodium and/or calcium channel modulators” (Newron Pharmaceuticals S.P.A., priority 2007, dated 2015).
Counter-ions that a name gives are not always drawn.

Each molecule was assayed on TTXs sodium channels (assay: TTXs-sodium channel influx assay (fluorescence, ND7/23 cell line)). Conditions: ND7/23 cells, veratridine 100 μM; read-out: Na+ influx IC50.
Assay type: cell-based, rat
Description: ND7/23 rat dorsal root ganglion-derived cell line endogenously expresses a mixed population of TTXs sodium channels. These cells lack of TTXr sodium channels as shown by the absence of their respective transcripts.
ND7/23 cells were grown in DMEM supplemented with 10% FBS and 1 mM sodium piruvate. The cells were seeded at 50,000 cells/well on 96 poly-L-lysine-coated plates and further incubated for 18-24 h before use.
The Membrane Potential Kit Assay (Molecular Devices), based on a negatively charged fluorescent dye able to monitor changes in membrane potential caused by the sodium influx due to the channel opening, was used for the assay.
Cells were incubated with the dye loading for 30 minutes at 25° C. Then, 100 nM of the toxin Anemonia sulcata (used as enhancer of the channel opener response) alone or in the presence of TTX (as reference standard) or test compound were added for further 15 minutes.
The fluorescence (excitation:530 nm, emission: 565 nm wavelength) was measured before and after (40-45 s) the automated injection of the sodium channel opener veratridine (100 μM) using a Victor plate reader (Perkin Elmer).
(§1) The inhibition curves were calculated from 5 concentrations, each in triplicate, and the IC50 determined using linear regression analysis.
Molecule `CCCCOc1ccc(F)c(CCNCC(=O)N(C)C)c1F.Cl` [2-[2-(3-Butoxy-2,6-difluorophenyl)-ethylamino]-N,N-dimethylacetamide hydrochloride] has an IC50 of 2.6 µM.
`CCCCOc1cc(CCNCC(=O)N(C)C)ccc1C.Cl` [2-[2-(3-Butoxy-4-methylphenyl)-ethylamino]-N,N-dimethylacetamide hydrochloride] gave an IC50 of 0.7 µM.
`CCCCOc1cccc(CCNCC(=O)N2CCCC2)c1` [2-[2-(3-Butoxyphenyl)-ethylamino]-1-pyrrolidin-1-yl-ethanone hydrochloride] gave an IC50 of 2.1 µM.
`CCCCOc1cccc(CCNC(C)(C)C(=O)N(C)C)c1` [2-[2-(3-Butoxyphenyl)-ethylamino]-2,N,N-trimethylpropanamide hydrochloride] was tested, and the IC50 was 0.7 µM.
`CCCCOc1cccc(CCNCC(=O)N(CCCC)CCCC)c1` [2-[2-(3-Butoxyphenyl)-ethylamino]-N,N-dibutylacetamide hydrochloride] gave an IC50 of 1.2 µM.
`CCCCOc1cccc(CCNCC(=O)N(CC)CC)c1` [2-[2-(3-Butoxyphenyl)-ethylamino]-N,N-diethylacetamide hydrochloride] showed an IC50 of 0.6 µM.
Work on `CCCCOc1cccc(CCNC(C)C(=O)N(C)C)c1.Cl` (stereo not shown) [2-[2-(3-Butoxyphenyl)-ethylamino]-N,N-dimethylpropanamide hydrochloride] yielded an IC50 of 1.1 µM.
With `CCCCOc1cccc(CCNCC(=S)N(C)C)c1` [2-[2-(3-Butoxyphenyl)-ethylamino]-N,N-dimethylthioacetamide hydrochloride] the IC50 was 1.2 µM.

These molecules were tested on L-type calcium channels (assay: Calcium channel influx assay (fluorescence, AtT20 cell line)). Conditions: AtT20 cells, 100 mM KCl depolarization; read-out: Ca++ influx IC50.
Assay type: cell-based, mouse
Description: AtT20/D16v-F2 mouse pituitary tumour cell line preferentially expresses L-type calcium channels.
AtT20 cells were grown in DMEM with 10% of FBS, 4 mM glutamine. The cells were seeded at 200,000 cells/well on 96 poly-L-lysine-coated plates and further incubated for 18-24 h, before use.
The Ca^++ Kit Assay (Molecular Devices), which is based on a fluorescent calcium indicator to detect the calcium influx determined by depolarizing conditions, was used for the assay.
Cells were incubated with the calcium dye loading for 30 min at 37° C. Then, ω-conotoxin alone (1 μM) or in presence of nifedipine (as reference standard) or test compound were added for further 15 min.
The fluorescence (excitation: 485-emission: 535 nm wavelength) was measured before and after (30-40 sec) the automated injection of 100 mM KCl depolarizing solution using a Victor plate reader (Perkin Elmer).
as §1
In the case of `CCCCOc1cc(CCNCC(=O)N(C)C)ccc1C.Cl` [2-[2-(3-Butoxy-4-methylphenyl)-ethylamino]-N,N-dimethylacetamide hydrochloride], the IC50 is reported as 10 µM.
In the case of `CCCCOc1cccc(CCNCC(=O)N(CCCC)CCCC)c1` [2-[2-(3-Butoxyphenyl)-ethylamino]-N,N-dibutylacetamide hydrochloride], the IC50 is reported as 1.8 µM.
`CCCCOc1cccc(CCNCC(=O)N(CC)CC)c1` [2-[2-(3-Butoxyphenyl)-ethylamino]-N,N-diethylacetamide hydrochloride] showed an IC50 of 6.7 µM.
Molecule `CCCCOc1cccc(CCNCC(=S)N(C)C)c1` [2-[2-(3-Butoxyphenyl)-ethylamino]-N,N-dimethylthioacetamide hydrochloride] has an IC50 of 7.6 µM.

Each molecule was assayed against MAO-B (Rattus norvegicus (Rat), UniProt P19643) (assay: In vitro MAO-B enzyme activity assay (radioenzymatic, rat brain mitochondria)). Conditions: 14C-PEA 0.5 μM.
Sequence of MAO-B (P19643 whole entry): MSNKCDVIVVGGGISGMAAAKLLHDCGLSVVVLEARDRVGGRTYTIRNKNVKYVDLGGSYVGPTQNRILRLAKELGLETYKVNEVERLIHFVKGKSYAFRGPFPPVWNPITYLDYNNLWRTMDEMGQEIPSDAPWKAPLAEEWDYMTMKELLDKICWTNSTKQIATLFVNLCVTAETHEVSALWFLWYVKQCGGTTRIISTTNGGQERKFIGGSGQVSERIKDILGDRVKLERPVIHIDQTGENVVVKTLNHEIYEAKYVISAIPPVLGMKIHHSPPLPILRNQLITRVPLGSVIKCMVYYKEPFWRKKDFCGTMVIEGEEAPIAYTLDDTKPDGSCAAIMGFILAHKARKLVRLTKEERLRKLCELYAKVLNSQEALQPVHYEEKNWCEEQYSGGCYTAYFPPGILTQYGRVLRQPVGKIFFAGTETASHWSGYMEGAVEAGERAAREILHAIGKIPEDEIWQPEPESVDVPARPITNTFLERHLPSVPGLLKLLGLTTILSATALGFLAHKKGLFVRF
Assay type: biochemical
Description: Male Wistar rats (Harlan, Italy weighing 175-200 g) were sacrificed under light anaesthesia and brains were rapidly removed and homogenized in 8 volumes of ice-cold 0.32 M sucrose buffer containing 0.1 M EDTA, pH 7.4. The crude homogenate was centrifuged at 2220 rpm for 10 minutes and the supernatant recovered. The pellet was homogenized and centrifuged again. The two supernatants were pooled and centrifuged at 9250 rpm for 10 minutes at +4° C. The pellet was resuspended in fresh buffer and centrifuged at 11250 rpm for 10 minutes at +4° C. The resulting pellet was stored at −80° C. The enzyme activity was assessed with a radioenzymatic assay using the substrate ^14C-phenylethylamine (PEA) specific for MAO-B. The mitochondrial pellet (500 μg protein) was resuspended in 0.1 M phosphate buffer (pH 7.4). 200 μl of the suspension were added to a 50 μl solution of the test compound or buffer, and incubated for 30 min at 37° C. (preincubation) then the substrate (50 μl) was added. The incubation was carried out for 10 minutes at 37° C. (^14C-PEA, 0.5 μM). The reaction was stopped by adding 0.2 ml of perchloric acid. After centrifugation, the deaminated metabolites were extracted with 3 ml of toluene and the radioactive organic phase containing the neutral and/or acidic metabolites formed as a result of MAO-B activity was measured by liquid scintillation spectrometry at 90% efficiency. The MAO-B activity was expressed as nmoles of substrate transformed/mg protein/min.
`CCCCOc1ccc(F)c(CCNCC(=O)N(C)C)c1F.Cl` [2-[2-(3-Butoxy-2,6-difluorophenyl)-ethylamino]-N,N-dimethylacetamide hydrochloride] was tested, and the IC50 was greater than 300 µM.
In the case of `CCCCOc1cccc(CCNC(C)C(=O)N(C)C)c1.Cl` (stereo not shown) [2-[2-(3-Butoxyphenyl)-ethylamino]-N,N-dimethylpropanamide hydrochloride], the IC50 is reported as greater than 300 µM.

Each molecule was assayed on mice (assay: Maximal electroshock test (MES) in mice). Conditions: Mus musculus, po; mice, MES, p.o.; read-out: ED50 (mg/kg p.o.).
Assay type: in vivo
Description: The maximal electroshock test (MES) is used commonly in the screening of anti-epileptic drugs in rodent models.
Animals and Apparatus: Male CD1 mice weighing 25 g were used. The procedure described by White et al. (White H. S., Woodhead J. H., Franklin M. R., Swinyard E. A., and Wolf H. H. Antiepileptic Drugs (1995) 4th ed: 99-110, Raven Press, Ltd., New York) was followed. An Ugo Basile electroconvulsive generator (Model ECT UNIT 7801) was used to deliver an electrical stimulus sufficient to produce a hindlimb tonic extensor response in at least 97% of control animals. The stimulus was delivered intra-aurally through clip electrodes in mice (0.7 s of a 40 mA shock, with a pulse train of 80 Hz having a pulse duration of 0.4 ms). The acute effect of compounds administered intraperitoneally (i.p.), subcutaneously (s.c.), intravenously (i.v.) or orally (p.o.) 5-120 minutes before MES induction were examined and compared with a vehicle control group. Ten mice were studied per group. Complete suppression of the hindlimb tonic extensor component of seizures was taken as evidence of anticonvulsant activity.
The compounds of the invention were administered p.o. or i.v., at the doses of 0.1-100 mg/kg.
In the case of `CCCCOc1ccc(F)c(CCNCC(=O)N(C)C)c1F.Cl` [2-[2-(3-Butoxy-2,6-difluorophenyl)-ethylamino]-N,N-dimethylacetamide hydrochloride], the ED50 is reported as 2 mg/kg.
`CCCCOc1cccc(CCNC(C)C(=O)N(C)C)c1.Cl` (stereo not shown) [2-[2-(3-Butoxyphenyl)-ethylamino]-N,N-dimethylpropanamide hydrochloride] showed an ED50 of 6.5 mg/kg.

Same assay, conditions: mice, MES, 10 mg/kg p.o.
`CCCCOc1ccc(F)c(CCNCC(=O)N(C)C)c1F.Cl` [2-[2-(3-Butoxy-2,6-difluorophenyl)-ethylamino]-N,N-dimethylacetamide hydrochloride] was tested, and the “% protection 10 mg/kg p.o.” value was 100%.
With `CCCCOc1cc(CCNCC(=O)N(C)C)ccc1C.Cl` [2-[2-(3-Butoxy-4-methylphenyl)-ethylamino]-N,N-dimethylacetamide hydrochloride] the “% protection 10 mg/kg p.o.” value was 40%.
In the case of `CCCCOc1cccc(CCNC(C)C(=O)N(C)C)c1.Cl` (stereo not shown) [2-[2-(3-Butoxyphenyl)-ethylamino]-N,N-dimethylpropanamide hydrochloride], the “% protection 10 mg/kg p.o.” value is reported as 60%.
